Experimental findings from patent US20060084135A1, “Compositions for manipulating the lifespan and stress response of cells and organisms” (priority 2003, published 2006) are described below.

The target of one series is T1, recombinant human SIRT1 (Homo sapiens, UniProt Q96EB6).
T1 sequence (Q96EB6 1-747): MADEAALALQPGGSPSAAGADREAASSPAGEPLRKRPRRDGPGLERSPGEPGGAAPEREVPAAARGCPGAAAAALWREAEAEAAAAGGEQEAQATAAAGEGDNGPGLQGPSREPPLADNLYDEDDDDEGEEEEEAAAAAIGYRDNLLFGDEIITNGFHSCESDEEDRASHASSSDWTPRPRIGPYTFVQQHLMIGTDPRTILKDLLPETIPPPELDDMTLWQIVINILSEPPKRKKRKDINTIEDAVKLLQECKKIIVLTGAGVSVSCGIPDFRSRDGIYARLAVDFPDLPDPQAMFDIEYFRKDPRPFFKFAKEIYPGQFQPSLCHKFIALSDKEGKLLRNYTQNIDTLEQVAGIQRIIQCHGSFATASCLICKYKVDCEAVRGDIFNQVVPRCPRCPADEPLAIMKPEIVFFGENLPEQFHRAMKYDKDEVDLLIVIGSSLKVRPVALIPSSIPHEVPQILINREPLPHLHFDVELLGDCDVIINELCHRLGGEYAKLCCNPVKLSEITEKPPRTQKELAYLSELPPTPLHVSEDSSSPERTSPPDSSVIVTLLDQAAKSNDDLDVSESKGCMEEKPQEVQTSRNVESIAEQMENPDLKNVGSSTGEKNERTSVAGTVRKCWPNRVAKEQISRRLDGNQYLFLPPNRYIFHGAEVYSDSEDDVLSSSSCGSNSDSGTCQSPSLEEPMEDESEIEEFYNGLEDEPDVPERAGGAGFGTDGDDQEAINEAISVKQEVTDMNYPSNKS
Briefly: SIRT1 fluorescent deacetylation assay (p53-382 acetylated peptide substrate). Format: biochemical. The settings on record: 25 μM NAD+, 25 μM p53-382 acetylated peptide.

For another series, the system named is S. cerevisiae. The experiment in a line: Yeast replicative lifespan. The class given is cell-based. The settings on record: 10 μM; for % change in yeast replicative lifespan relative to untreated organisms: 2% glucose YPD, untreated = 100%. The method, then: Average lifespan was determined for wild type untreated (□), quercetin (◯) and piceatannol (●).
Another series relates to HeLa S3 cells. The experiment in a line: Cellular deacetylase assay with Fluor de Lys substrate. To be noted: 1 μM TSA. The class given is cell-based, human. The method, then: FdL (200 μM) is added to growth media and cells are incubated for 1-3 hours to allow FdL to enter the cells and the lysine-deacetylated product (deAc-FdL) to accumulate intracellularly. Cells are lysed with detergent in the presence of 1 μM TSA and 1 mM nicotinamide. Addition of the non-cell-permeable Developer (BIOMOL) releases a fluorophor, specifically from deAc-FdL. […] Cells were grown adherently in DMEM/10% FCS and treated for 1 hour with 200 μM FdL, 1 μM TSA and either vehicle (0.5% final DMSO, Control) or 500 μM of the indicated compound. Intracellular accumulation of deAc-FdL was then determined as described briefly in FIG. 4a. […] Lysates were prepared and analyzed by Western blot as in FIG. 4c. […] Lysates were prepared and analyzed as above.
FIG. 6a through 6c show intracellular deacetylation activity measured with a cell-permeable, fluorogenic HDAC and sirtuin substrate. […] Intracellular and medium levels of deacetylated substrate (deAc-FdL) were determined according to the manufacturer's instructions (HDAC assay kit, BIOMOL). […]
Themed compound libraries (BIOMOL) were used for primary and secondary screening. […] HeLa cells were grown and the cellular deacetylation assays were performed and read, as above, but in full-volume 96-well microplates (Corning Costar 3595). […]

Another series relates to C. elegans (strain N2). Briefly: C. elegans lifespan. The settings on record: 100/500 μM; N2 worms, E. coli as food; untreated = 100%. Format: in vivo. The method, then:
Thus, the presence of resveratrol in the growth media of C. elegans extends their lifespan.
The effect of some of these compounds on lifespan was determined in yeast, C. elegans and D. melanogaster, as described above.

Series [1] is described as follows: Stability in solution (decay of SIRT1 fold-stimulation of aged stock). The settings on record: ethanol stock solution; ethanol stock 2.5 mM, room temperature, glass vials, nitrogen; assayed at 50 μM; read-out: Stability in Solution t1/2 (converted). The class given is physicochemical. An excerpt: The fold-stimulation (ratio to control) obtained with a compound diluted from an aged stock solution was compared to an identical dilution from a stock solution freshly prepared from the solid compound. “t1/2” is defined as the time required for the SIRT1 fold-stimulation of the compound from the aged solution to decay to one-half of that obtained from a freshly prepared solution. […] Stocks were aged by storage at room […] temperature, in glass vials, under a nitrogen atmosphere.

On to `O=C(/C=C/c1ccc(O)c(O)c1)c1ccc(O)cc1O` [Butein, 3,4,2′,4′-Tetrahydroxychalcone], for which the “Ratio to Control Rate Mean ± SE” value at recombinant human SIRT1 (Supplementary Table 1, stilbenes and chalcones, 100 μM) was 8.53 ± 0.89. The “Ratio to Control Rate Mean ± SE” value on recombinant human SIRT1 (Table 1, 100 μM compound) turned out to be 8.53 ± 0.89. In the series on S. cerevisiae (wild type), the “Effect on maximum lifespan” value is “significantly increased” and the “Increase of average lifespan” value came out at 31%. Besides, the “TSA-insensitive cellular deacetylation signal” value in the series on HeLa S3 cells (500 μM compound, 200 μM FdL, 1 hour) is listed as “no effect”.

For the molecule `CC(=O)Oc1ccc(/C=C/c2cc(O)cc(O)c2)cc1` [BML-221, 3,5-Dihydroxy-4′-acetoxy-trans-stilbene], the “% change in C. elegans lifespan relative to untreated organisms” value in the series on C. elegans (strain N2) is recorded as >100% (ongoing). Further, the “Ratio to Control Rate Mean ± SE” value at recombinant human SIRT1 (Table 11, resveratrol analogs, 100 μM) was determined as 3.05 ± 0.54. The “% change in yeast replicative lifespan relative to untreated organisms” value in the series on S. cerevisiae worked out at 165%. For the same molecule, the half-life in series [1] is 21 days.

As to `Oc1cc(O)cc(/C=C/c2ccc(F)cc2)c1` [BML-212, 3,5-Dihydroxy-4′-fluoro-trans-stilbene], the “Ratio to Control Rate Mean ± SE” value on recombinant human SIRT1 (Table 9, resveratrol analogs, 100 μM) is 8.20 ± 0.69. For the same molecule, in the series on S. cerevisiae, the “% change in yeast replicative lifespan relative to untreated organisms” value was 98%. Further, the half-life at 50 µM in series [1] was 2.75 days.

Take `CC(/C=C/C(=O)NO)=C\[C@@H](C)C(=O)c1ccc(N(C)C)cc1` [trichostatin A, reference compound]: the “Signal insensitive to trichostatin A” value with HeLa S3 cells (HeLa cells growing adherently) is listed as 5-10%.
